{"source": "patent US20250051300A1", "about": "“GRAM-NEGATIVE SPECIFIC ANTIBIOTICS SPARING EFFECT ON GUT MICROBIOME” (THE BOARD OF TRUSTEES OF THE UNIVERSITY OF ILLINOIS, priority 2021, published 2025)", "key": {"[1]": {"tested_on": "clinical isolates of E. coli, K. pneumoniae, and E. cloacae", "assay": "Susceptibility of panel of multidrug-resistant clinical isolates"}, "[2]": {"tested_on": "E. coli AR0349", "assay": "Acute pneumonia bacterial burden model", "type": "in vivo, CD-1 mice", "settings": "lungs, 72 h post-infection; for reduction in bacterial burden: 100 mg/kg IP twice a day for 3 days"}, "[3]": {"tested_on": "Escherichia coli", "assay": "Resistance frequency, large inoculum method", "type": "cell-based", "protocol": "(§1) Selection of resistant mutants. Resistant mutants were selected using the large inoculum method. Briefly, E. coli BW25113, K. pneumoniae ATCC 27736, or E. cloacae ATCC 29893 (˜1.0×10^7 c.f.u.) was plated on 100-mm plates of Luria Bertani agar containing 8, 16, 32, or 64 μg/mL, lolamycin. For E. coli ΔtolC (JW5503), ˜1.0×10^7 c.f.u. was plated on 100-mm plates of Luria Bertani agar containing 0.063, 0.13, 0.25, 0.5 μg/mL lolamycin. Colonies were visible after incubating at 37° C. for 48 h. Resistant colonies were confirmed by growing colonies in selective media with the same concentration of lolamycin."}, "[4]": {"tested_on": "Lactobacillus reuteri", "assay": "MIC, gut commensal bacteria, micro-dilution broth"}, "[5]": {"tested_on": "Bacteroides fragilis", "assay": "MIC, gut commensal bacteria, micro-dilution broth"}, "[6]": {"tested_on": "Enterococcus faecalis", "assay": "MIC, micro-dilution broth method (CLSI)", "type": "cell-based"}, "[7]": {"tested_on": "A-549 cells", "assay": "Cell viability (Alamar Blue), mammalian cell line", "type": "cell-based", "settings": "Homo sapiens, A549, read-out: IC50, mammalian cell lines (converted)", "protocol": "(§2) Cell culture. HFF-1 cells (newborn) were obtained from the ATCC. […] A-549 cells (adult) were obtained from the ATCC. […] All cells were cultured at 37° C. under a 5% CO2 environment. Cell lines were authenticated externally by a commercial vendor and inspected visually in house. Cell lines were not tested for Mycoplasma contamination. The media was prepared by the University of Illinois School of Chemical Sciences Cell Media Facility. Cell viability. HFF-1 cells were seeded (8,000 cells/well) in a 96-well plate (Greiner Bio-One; catalogue number: 655180) and allowed to attach overnight. Cells were treated with investigational compounds in dimethyl sulfoxide (DMSO). […] Raptinal (100 μM) was used as a dead control. On each plate, at least three technical replicates per compound were performed. After 24 h post-treatment, cell viability was assessed using the Alamar Blue method. Stock Alamar Blue solution (10 μL 440 μM resazurin (Sigma-Aldrich; catalogue number: R7017) in sterile 1×PBS) was added to each well, and the plate was incubated for 3-4 h. Conversion of Alamar Blue was measured with a plate reader (SpectraMax M3; Molecular Devices) by fluorescence (excitation wavelength: 555 nm; emission wavelength: 585 nm; cutoff 570 nm; autogain). Percentage death was determined by normalizing to DMSO-treated cells and Raptinal-treated cells. […]"}, "[8]": {"tested_on": "HFF-1 cells", "assay": "Cell viability (Alamar Blue), mammalian cell line", "type": "cell-based", "settings": "Homo sapiens, HFF-1, 24 h, read-out: IC50, mammalian cell lines", "protocol": "as §2"}, "[9]": {"tested_on": "K. pneumoniae AR0040", "assay": "Acute pneumonia bacterial burden model", "type": "in vivo, CD-1 mice", "settings": "colistin-resistant K. pneumoniae, 100 mg/kg IP (FIG. 7C)"}, "[10]": {"tested_on": "Acinetobacter baumannii", "assay": "MIC, micro-dilution broth method (CLSI)", "type": "cell-based", "source_text": "(§3) Antimicrobial susceptibility assays."}, "[11]": {"tested_on": "Streptococcus pyogenes", "assay": "MIC, micro-dilution broth method (CLSI)", "type": "cell-based", "settings": "Streptococcus pyogenes Strain 1055", "source_text": "as §3"}, "[12]": {"tested_on": "Bacillus subtilis", "assay": "MIC, micro-dilution broth method (CLSI)", "type": "cell-based", "settings": "Bacillus subtilis PY79", "source_text": "as §3"}, "[13]": {"tested_on": "Bacillus cereus", "assay": "MIC, micro-dilution broth method (CLSI)", "type": "cell-based", "settings": "ATCC11778; Bacillus cereus ATCC 11778", "source_text": "as §3"}, "[14]": {"tested_on": "K. pneumoniae ATCC 27736", "assay": "Resistance frequency, large inoculum method", "type": "cell-based, Klebsiella pneumoniae", "settings": "wild-type K. pneumoniae ATCC 27736, 8×MIC", "protocol": "as §1"}, "[15]": {"tested_on": "Bifidobacterium longum", "assay": "MIC, gut commensal bacteria, micro-dilution broth"}, "[16]": {"tested_on": "Bacteroides cellulosilyticus", "assay": "MIC, gut commensal bacteria, micro-dilution broth"}, "[17]": {"tested_on": "Streptococcus salivarius", "assay": "MIC, gut commensal bacteria, micro-dilution broth"}, "[18]": {"tested_on": "E. coli BW25113 LolC/LolE mutants", "assay": "MIC against lolamycin-resistant LolCDE mutants", "type": "cell-based, Escherichia coli"}, "[19]": {"tested_on": "Salmonella typhimurium", "assay": "MIC, micro-dilution broth method (CLSI)", "type": "cell-based", "settings": "Salmonella enterica, ATCC 14028 / TYPHIMURIUM; Salmonella typhimurium ATCC14028"}, "[20]": {"tested_on": "Faecalibacterium prausnitzii", "assay": "MIC, gut commensal bacteria, micro-dilution broth"}, "[21]": {"settings": "MDR clinical isolates of E. coli"}}}
{"compound": "Fc1ccc(COc2cccc(-c3n[nH]cc3-c3ccncc3)c2)cc1", "note": "[Compound 2, 4-(3-(3-((4-fluorobenzyl)oxy)phenyl)-1H-pyrazol-4-yl)pyridine]", "values": [{"measurement": "activity against MDR clinical isolates", "setting": "[1]", "value": "only minimal activity"}, {"measurement": "reduction in bacterial burden", "setting": "[2]", "value": "fared poorly"}, {"measurement": "resistance frequency", "setting": "[3]; E. coli ΔtolC JW5503, 32×MIC", "value": "9.2×10^−7"}]}
{"compound": "Cc1cc(-c2c[nH]nc2-c2cccc(OCc3cccc(C#N)c3)c2)cc(C)n1", "note": "[Compound 12, 3-((3-(4-(2,6-dimethylpyridin-4-yl)-1H-pyrazol-3-yl)phenoxy)methyl)benzonitrile]", "values": [{"measurement": "MIC", "setting": "[4]; Lactobacillus reuteri ATCC 23272, BHI-ych, listed as Lolamycin", "value": ">128", "unit": "µg/mL"}, {"measurement": "MIC", "setting": "[4]; Limosilactobacillus reuteri, ATCC23272", "value": "> 128", "unit": "µg/mL"}, {"measurement": "MIC", "setting": "[5]; Bacteroides fragilis ATCC 25285, BHI-ych, listed as Lolamycin", "value": ">128", "unit": "µg/mL"}, {"measurement": "MIC", "setting": "[5]; Bacteroides fragilis, ATCC25285", "value": "> 128", "unit": "µg/mL"}, {"measurement": "MIC", "setting": "[6]; Enterococcus faecalis", "value": "> 128", "unit": "µg/mL"}, {"measurement": "MIC", "setting": "[6]; Enterococcus faecalis KLE 2341, BHI-ych, listed as Lolamycin", "value": ">128", "unit": "µg/mL"}, {"measurement": "MIC", "setting": "[6]; Enterococcus faecalis, ATCC19433", "value": "> 128", "unit": "µg/mL"}, {"measurement": "IC50", "setting": "[7]", "value": 41.9, "unit": "µM"}, {"measurement": "IC50", "setting": "[8]", "value": "85.3 ± 11.8", "unit": "µM"}, {"measurement": "concentration that kills 50% of the strains", "setting": "[1]; [21]", "value": "~2", "unit": "µg/mL"}, {"measurement": "concentration that kills 90% of the strains", "setting": "[1]; [21]", "value": "~8", "unit": "µg/mL"}, {"measurement": "reduction in bacterial burden", "setting": "[2]", "value": 2, "unit": "log"}, {"measurement": "reduction in bacterial burden vs vehicle", "setting": "[2]; 200 mg/kg PO twice a day for 3 days", "value": 3, "unit": "log"}, {"measurement": "efficacy, bacterial burden", "setting": "[9]", "value": "showed the efficacy"}, {"measurement": "MIC", "setting": "[10]; ATCC19606, Acinetobacter baumannii ATCC 19606", "value": "> 128", "unit": "µg/mL"}, {"measurement": "MIC", "setting": "[10]; ATCC19606, Acinetobacter baumannii ATCC 19606 Δ3", "value": 32, "unit": "µg/mL"}, {"measurement": "MIC", "setting": "[11]", "value": "> 128", "unit": "µg/mL"}, {"measurement": "MIC", "setting": "[12]", "value": "> 128", "unit": "µg/mL"}, {"measurement": "MIC", "setting": "[13]", "value": "> 128", "unit": "µg/mL"}, {"measurement": "resistance frequency", "setting": "[14]", "value": "1.2×10^−8"}, {"measurement": "MIC", "setting": "[15]; Bifidobacterium longum ATCC BAA-999, BHI-ych, listed as Lolamycin", "value": ">128", "unit": "µg/mL"}, {"measurement": "MIC", "setting": "[15]; Bifidobacterium longum, ATCCBAA999", "value": "> 128", "unit": "µg/mL"}, {"measurement": "MIC", "setting": "[16]; Bacteroides cellulosilyticus", "value": "> 128", "unit": "µg/mL"}, {"measurement": "MIC", "setting": "[16]; Bacteroides cellulosilyticus KLE 2342, BHI-ych, listed as Lolamycin", "value": ">128", "unit": "µg/mL"}, {"measurement": "MIC", "setting": "[17]; Streptococcus salivarius", "value": "> 128", "unit": "µg/mL"}, {"measurement": "MIC", "setting": "[17]; Streptococcus salivarius KLE 2370, BHI-ych, listed as Lolamycin", "value": ">128", "unit": "µg/mL"}, {"measurement": "resistance frequency", "setting": "[3]; E. coli ΔtolC JW5503, 32×MIC", "value": "1.8×10^−8"}, {"measurement": "resistance frequency", "setting": "[3]; wild-type E. coli BW25113, 8×MIC", "value": "3.4×10^−7"}, {"measurement": "MIC", "setting": "[18]; E. coli BW25113 mutant D264N (LolE), selected at 32-fold MIC", "value": ">128", "unit": "µg/mL"}, {"measurement": "MIC", "setting": "[18]; E. coli BW25113 mutant E195K (LolC), selected at 32-fold MIC", "value": ">128", "unit": "µg/mL"}, {"measurement": "MIC", "setting": "[18]; E. coli BW25113 mutant E255D (LolC), selected at 32-fold MIC", "value": ">128", "unit": "µg/mL"}, {"measurement": "MIC", "setting": "[18]; E. coli BW25113 mutant F367S (LolE), selected at 32-fold MIC", "value": ">128", "unit": "µg/mL"}, {"measurement": "MIC", "setting": "[18]; E. coli BW25113 mutant I206N (LolE), selected at 32-fold MIC", "value": ">128", "unit": "µg/mL"}, {"measurement": "MIC", "setting": "[18]; E. coli BW25113 mutant M262I (LolC), selected at 32-fold MIC", "value": ">128", "unit": "µg/mL"}, {"measurement": "MIC", "setting": "[18]; E. coli BW25113 mutant N265K (LolC), selected at 32-fold MIC", "value": ">128", "unit": "µg/mL"}, {"measurement": "MIC", "setting": "[18]; E. coli BW25113 mutant Q258P (LolC), selected at 32-fold MIC", "value": ">128", "unit": "µg/mL"}, {"measurement": "MIC", "setting": "[18]; Escherichia coli, BW25113", "value": "> 128", "unit": "µg/mL"}, {"measurement": "MIC", "setting": "[19]", "value": 1, "unit": "µg/mL"}, {"measurement": "MIC", "setting": "[20]; Faecalibacterium prausnitzii ATCC 27768, BHI-ych, listed as Lolamycin", "value": ">128", "unit": "µg/mL"}, {"measurement": "MIC", "setting": "[20]; Faecalibacterium prausnitzii, ATCC27768", "value": "> 128", "unit": "µg/mL"}]}
